Test results taken from publication PMC11233931, “Remodeling tumor‐associated macrophage for anti‐cancer effects by rational design of irreversible inhibition of mitogen‐activated protein kinase‐activated protein kinase 2” (MedComm, 2024).

Columns and labels:
Experiment in all cases: Eurofins kinase selectivity profile against 380 other human recombinant kinases (Table S2)
Format in all cases: biochemical
[1] = target: T1, 380 human recombinant protein kinases (Homo sapiens, UniProt P31749); settings: PKBα(h), read-out: Inhibition rate
T1 construct: purchased Eurofins (Celle Lévescault)
Method in brief: (§1)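 Outsourced panel: 380 human recombinant kinases; inhibitor tested at various concentrations; purpose: MK2 selectivity check.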

[2] = target: T2, 380 human recombinant protein kinases (Homo sapiens, UniProt P51956); settings: NEK3(h), read-out: Inhibition rate
T2 construct: purchased Eurofins (Celle Lévescault)
T2 sequence (P51956 1-506): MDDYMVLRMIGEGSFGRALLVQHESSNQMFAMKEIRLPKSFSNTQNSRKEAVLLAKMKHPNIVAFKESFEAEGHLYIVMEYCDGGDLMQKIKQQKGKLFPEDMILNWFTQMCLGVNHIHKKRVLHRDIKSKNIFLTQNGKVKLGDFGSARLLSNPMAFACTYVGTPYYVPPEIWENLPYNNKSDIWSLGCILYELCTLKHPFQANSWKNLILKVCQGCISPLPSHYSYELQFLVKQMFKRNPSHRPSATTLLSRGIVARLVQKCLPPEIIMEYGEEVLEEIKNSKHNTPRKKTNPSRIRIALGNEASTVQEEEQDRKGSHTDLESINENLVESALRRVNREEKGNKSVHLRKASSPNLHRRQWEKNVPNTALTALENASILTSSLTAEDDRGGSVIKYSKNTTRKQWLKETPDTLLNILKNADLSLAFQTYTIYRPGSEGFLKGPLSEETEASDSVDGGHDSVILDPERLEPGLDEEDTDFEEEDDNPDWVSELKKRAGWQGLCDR
Method in brief: as §1

[3] = target: T3, 380 human recombinant protein kinases (Homo sapiens, UniProt Q00526); settings: CDK3/cyclinE(h), read-out: Inhibition rate
T3 construct: purchased Eurofins (Celle Lévescault)
Method in brief: as §1

[4] = target: T4, 380 human recombinant protein kinases (Homo sapiens, UniProt Q02750); settings: MEK1(h), read-out: Inhibition rate
T4 construct: purchased Eurofins (Celle Lévescault)
Method in brief: as §1

[5] = target: T5, 380 human recombinant protein kinases (Homo sapiens, UniProt Q13188); settings: MST2(h), read-out: Inhibition rate
T5 construct: purchased Eurofins (Celle Lévescault)
T5 sequence (Q13188 1-491): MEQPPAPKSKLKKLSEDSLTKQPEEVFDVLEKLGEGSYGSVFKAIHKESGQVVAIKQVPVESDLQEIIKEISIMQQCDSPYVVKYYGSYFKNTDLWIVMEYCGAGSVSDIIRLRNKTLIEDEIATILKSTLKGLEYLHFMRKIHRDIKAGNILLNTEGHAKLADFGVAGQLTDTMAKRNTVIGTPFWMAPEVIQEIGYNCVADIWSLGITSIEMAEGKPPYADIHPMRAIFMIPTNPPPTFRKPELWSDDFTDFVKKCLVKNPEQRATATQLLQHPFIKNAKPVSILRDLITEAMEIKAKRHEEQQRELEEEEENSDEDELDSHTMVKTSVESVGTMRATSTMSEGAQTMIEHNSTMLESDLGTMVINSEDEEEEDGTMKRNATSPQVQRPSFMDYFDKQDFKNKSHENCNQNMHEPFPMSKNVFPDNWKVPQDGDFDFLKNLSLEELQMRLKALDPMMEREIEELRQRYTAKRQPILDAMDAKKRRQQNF
Method in brief: as §1

[6] = target: T6, 380 human recombinant protein kinases (Homo sapiens, UniProt Q8N4C8); settings: MINK(h), read-out: Inhibition rate
T6 construct: purchased Eurofins (Celle Lévescault)
Method in brief: as §1

[7] = target: T7, 380 human recombinant protein kinases (Homo sapiens, UniProt Q96PN8); settings: TSSK3(h), read-out: Inhibition rate (%)
T7 construct: purchased Eurofins (Celle Lévescault)
T7 sequence (Q96PN8 1-268): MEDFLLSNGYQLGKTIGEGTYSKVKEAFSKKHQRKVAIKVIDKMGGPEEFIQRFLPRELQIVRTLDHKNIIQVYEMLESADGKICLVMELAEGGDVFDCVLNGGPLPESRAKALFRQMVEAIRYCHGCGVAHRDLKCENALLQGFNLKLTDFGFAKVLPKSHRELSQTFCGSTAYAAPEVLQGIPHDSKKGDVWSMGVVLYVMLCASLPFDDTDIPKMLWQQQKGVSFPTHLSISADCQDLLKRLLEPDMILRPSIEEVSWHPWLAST
Method in brief: as §1

[8] = target: T8, 380 human recombinant protein kinases (Homo sapiens, UniProt Q9BXA7); settings: TSSK1(h), read-out: Inhibition rate (%)
T8 construct: purchased Eurofins (Celle Lévescault)
T8 sequence (Q9BXA7 1-367): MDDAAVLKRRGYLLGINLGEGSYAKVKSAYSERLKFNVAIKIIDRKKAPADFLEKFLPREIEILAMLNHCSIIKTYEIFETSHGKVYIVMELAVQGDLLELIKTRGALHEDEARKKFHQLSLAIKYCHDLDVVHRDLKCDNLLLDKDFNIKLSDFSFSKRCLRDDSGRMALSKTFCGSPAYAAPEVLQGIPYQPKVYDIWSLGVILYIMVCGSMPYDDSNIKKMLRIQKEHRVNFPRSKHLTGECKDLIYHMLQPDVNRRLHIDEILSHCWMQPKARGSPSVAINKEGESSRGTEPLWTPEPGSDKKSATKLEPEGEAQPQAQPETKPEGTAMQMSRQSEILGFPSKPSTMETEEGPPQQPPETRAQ
Method in brief: as §1

[9] = target: T9, 380 human recombinant protein kinases (Homo sapiens, UniProt Q9BYT3); settings: STK33(h), read-out: Inhibition rate (%)
T9 construct: purchased Eurofins (Celle Lévescault)
Method in brief: as §1

T4 sequence (Q02750 whole entry): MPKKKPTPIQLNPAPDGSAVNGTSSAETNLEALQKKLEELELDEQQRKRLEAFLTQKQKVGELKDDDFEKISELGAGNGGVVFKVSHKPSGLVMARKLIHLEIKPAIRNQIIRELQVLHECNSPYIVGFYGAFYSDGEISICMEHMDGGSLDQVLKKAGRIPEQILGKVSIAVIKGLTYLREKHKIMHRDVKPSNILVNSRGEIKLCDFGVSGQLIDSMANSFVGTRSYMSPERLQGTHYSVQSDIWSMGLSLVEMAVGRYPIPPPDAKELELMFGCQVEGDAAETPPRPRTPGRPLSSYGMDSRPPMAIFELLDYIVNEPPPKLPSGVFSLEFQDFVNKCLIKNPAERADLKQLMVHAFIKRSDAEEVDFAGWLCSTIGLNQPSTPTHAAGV
T3 sequence (Q00526 whole entry): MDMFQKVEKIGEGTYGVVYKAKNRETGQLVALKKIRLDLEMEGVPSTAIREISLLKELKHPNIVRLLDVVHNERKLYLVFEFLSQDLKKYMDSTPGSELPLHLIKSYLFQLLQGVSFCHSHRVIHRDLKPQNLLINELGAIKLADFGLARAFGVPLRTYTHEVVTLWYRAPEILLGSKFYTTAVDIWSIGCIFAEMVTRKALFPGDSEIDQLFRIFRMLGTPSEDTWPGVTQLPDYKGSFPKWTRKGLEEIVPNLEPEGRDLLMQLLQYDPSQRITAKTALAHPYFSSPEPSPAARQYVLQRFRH
T1 sequence (P31749 whole entry): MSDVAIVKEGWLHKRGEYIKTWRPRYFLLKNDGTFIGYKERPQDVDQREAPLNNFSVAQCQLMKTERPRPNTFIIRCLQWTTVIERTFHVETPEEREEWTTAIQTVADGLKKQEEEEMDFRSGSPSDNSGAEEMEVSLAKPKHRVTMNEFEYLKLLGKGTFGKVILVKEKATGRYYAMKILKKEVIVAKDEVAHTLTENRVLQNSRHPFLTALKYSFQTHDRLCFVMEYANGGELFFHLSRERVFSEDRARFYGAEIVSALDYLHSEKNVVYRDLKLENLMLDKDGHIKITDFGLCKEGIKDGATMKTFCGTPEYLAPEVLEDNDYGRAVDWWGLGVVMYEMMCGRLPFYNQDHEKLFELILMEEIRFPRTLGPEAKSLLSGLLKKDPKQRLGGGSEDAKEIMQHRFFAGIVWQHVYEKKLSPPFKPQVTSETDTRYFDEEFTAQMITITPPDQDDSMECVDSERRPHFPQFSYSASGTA
T9 sequence (Q9BYT3 whole entry): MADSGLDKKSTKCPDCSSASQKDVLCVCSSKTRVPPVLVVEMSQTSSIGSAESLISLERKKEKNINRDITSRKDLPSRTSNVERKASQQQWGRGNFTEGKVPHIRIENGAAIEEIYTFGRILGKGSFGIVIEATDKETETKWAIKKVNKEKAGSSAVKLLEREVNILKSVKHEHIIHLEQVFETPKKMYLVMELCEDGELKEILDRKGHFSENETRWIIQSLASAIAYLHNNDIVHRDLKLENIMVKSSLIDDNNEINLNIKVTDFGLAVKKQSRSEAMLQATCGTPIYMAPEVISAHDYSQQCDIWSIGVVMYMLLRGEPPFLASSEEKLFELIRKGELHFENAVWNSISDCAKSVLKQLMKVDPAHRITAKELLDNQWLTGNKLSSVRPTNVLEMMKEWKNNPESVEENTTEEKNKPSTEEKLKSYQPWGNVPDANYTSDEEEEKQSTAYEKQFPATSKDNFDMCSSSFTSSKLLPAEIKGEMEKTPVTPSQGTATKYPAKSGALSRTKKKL
T6 sequence (Q8N4C8 whole entry): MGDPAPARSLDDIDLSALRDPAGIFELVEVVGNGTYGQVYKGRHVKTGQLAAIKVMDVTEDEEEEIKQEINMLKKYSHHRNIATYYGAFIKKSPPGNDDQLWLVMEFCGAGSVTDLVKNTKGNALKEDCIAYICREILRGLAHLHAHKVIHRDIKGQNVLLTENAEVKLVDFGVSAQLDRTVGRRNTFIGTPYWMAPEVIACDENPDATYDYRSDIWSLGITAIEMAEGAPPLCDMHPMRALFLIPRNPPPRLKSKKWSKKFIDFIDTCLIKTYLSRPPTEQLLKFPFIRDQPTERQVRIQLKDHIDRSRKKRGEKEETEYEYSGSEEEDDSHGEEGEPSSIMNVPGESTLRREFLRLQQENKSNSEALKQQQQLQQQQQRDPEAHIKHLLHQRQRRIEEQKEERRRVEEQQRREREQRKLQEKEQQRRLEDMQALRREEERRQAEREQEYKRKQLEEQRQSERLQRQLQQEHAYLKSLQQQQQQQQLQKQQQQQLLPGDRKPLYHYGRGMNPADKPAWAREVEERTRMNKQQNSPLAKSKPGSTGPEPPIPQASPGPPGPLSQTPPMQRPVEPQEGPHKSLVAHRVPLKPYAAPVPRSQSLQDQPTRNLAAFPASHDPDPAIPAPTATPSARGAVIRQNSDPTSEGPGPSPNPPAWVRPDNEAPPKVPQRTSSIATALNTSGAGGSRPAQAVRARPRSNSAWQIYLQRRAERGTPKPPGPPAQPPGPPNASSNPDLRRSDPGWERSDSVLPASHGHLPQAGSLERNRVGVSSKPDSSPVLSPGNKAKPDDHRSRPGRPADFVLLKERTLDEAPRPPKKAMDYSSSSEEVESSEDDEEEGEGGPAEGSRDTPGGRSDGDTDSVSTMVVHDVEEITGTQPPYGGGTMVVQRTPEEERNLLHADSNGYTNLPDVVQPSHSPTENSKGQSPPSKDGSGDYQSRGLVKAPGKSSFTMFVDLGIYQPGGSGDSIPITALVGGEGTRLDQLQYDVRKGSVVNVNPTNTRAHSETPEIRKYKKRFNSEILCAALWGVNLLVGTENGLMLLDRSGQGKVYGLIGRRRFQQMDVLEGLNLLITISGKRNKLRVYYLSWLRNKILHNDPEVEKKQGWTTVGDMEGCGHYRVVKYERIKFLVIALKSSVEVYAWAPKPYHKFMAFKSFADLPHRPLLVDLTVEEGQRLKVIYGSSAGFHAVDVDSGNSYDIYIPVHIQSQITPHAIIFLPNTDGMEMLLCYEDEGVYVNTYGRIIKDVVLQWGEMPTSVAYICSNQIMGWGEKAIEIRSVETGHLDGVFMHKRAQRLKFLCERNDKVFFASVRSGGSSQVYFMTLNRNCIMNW

C=CC(=O)Nc1cc(-c2cc(-c3cc4c([nH]3)CCNC4=O)ccn2)ccc1OC(F)(F)F [compound 11]
inhibition at 0.01 µM ([1]; 10 nM): 2%
inhibition at 0.1 µM ([1]; 100 nM): 4%
inhibition at 1 µM ([1]; 1000 nM): 14%
inhibition at 0.01 µM ([2]; 10 nM): -6%
inhibition at 0.1 µM ([2]; 100 nM): 0%
inhibition at 1 µM ([2]; 1000 nM): -1%
inhibition at 0.01 µM ([3]; 10 nM): -5%
inhibition at 0.1 µM ([3]; 100 nM): -1%
inhibition at 1 µM ([3]; 1000 nM): 0%
inhibition at 0.01 µM ([4]; 10 nM): -12%
inhibition at 0.1 µM ([4]; 100 nM): -4%
inhibition at 1 µM ([4]; 1000 nM): -8%
inhibition at 0.01 µM ([5]; 10 nM): -7%
inhibition at 0.1 µM ([5]; 100 nM): 0%
inhibition at 1 µM ([5]; 1000 nM): 6%
inhibition at 0.01 µM ([6]; 10 nM): -10%
inhibition at 0.1 µM ([6]; 100 nM): 3%
inhibition at 1 µM ([6]; 1000 nM): 31%
inhibition at 0.01 µM ([7]; 10 nM): 0%
inhibition at 0.1 µM ([7]; 100 nM): 5%
inhibition at 1 µM ([7]; 1000 nM): -2%
inhibition at 0.01 µM ([8]; 10 nM): 1%
inhibition at 0.1 µM ([8]; 100 nM): 2%
inhibition at 1 µM ([8]; 1000 nM): 7%
inhibition at 0.01 µM ([9]; 10 nM): 8%
inhibition at 0.1 µM ([9]; 100 nM): 18%
inhibition at 1 µM ([9]; 1000 nM): 64%
